Measured values taken from EP4722213A1, “NITROGEN-CONTAINING FUNCTIONAL GROUP-SUBSTITUTED PYRIDAZINOPYRIDONE DERIVATIVE AND USE THEREOF” (Sichuan Huiyu Pharmaceutical Co., Ltd., priority 2023, dated 2024).
pIC50: −log10 of the molar value. Structures can show the parent of a compound that is named as a salt.

Biological target: T1, SOS1 (Homo sapiens, UniProt Q07889)
T1 sequence (Q07889 1-1333): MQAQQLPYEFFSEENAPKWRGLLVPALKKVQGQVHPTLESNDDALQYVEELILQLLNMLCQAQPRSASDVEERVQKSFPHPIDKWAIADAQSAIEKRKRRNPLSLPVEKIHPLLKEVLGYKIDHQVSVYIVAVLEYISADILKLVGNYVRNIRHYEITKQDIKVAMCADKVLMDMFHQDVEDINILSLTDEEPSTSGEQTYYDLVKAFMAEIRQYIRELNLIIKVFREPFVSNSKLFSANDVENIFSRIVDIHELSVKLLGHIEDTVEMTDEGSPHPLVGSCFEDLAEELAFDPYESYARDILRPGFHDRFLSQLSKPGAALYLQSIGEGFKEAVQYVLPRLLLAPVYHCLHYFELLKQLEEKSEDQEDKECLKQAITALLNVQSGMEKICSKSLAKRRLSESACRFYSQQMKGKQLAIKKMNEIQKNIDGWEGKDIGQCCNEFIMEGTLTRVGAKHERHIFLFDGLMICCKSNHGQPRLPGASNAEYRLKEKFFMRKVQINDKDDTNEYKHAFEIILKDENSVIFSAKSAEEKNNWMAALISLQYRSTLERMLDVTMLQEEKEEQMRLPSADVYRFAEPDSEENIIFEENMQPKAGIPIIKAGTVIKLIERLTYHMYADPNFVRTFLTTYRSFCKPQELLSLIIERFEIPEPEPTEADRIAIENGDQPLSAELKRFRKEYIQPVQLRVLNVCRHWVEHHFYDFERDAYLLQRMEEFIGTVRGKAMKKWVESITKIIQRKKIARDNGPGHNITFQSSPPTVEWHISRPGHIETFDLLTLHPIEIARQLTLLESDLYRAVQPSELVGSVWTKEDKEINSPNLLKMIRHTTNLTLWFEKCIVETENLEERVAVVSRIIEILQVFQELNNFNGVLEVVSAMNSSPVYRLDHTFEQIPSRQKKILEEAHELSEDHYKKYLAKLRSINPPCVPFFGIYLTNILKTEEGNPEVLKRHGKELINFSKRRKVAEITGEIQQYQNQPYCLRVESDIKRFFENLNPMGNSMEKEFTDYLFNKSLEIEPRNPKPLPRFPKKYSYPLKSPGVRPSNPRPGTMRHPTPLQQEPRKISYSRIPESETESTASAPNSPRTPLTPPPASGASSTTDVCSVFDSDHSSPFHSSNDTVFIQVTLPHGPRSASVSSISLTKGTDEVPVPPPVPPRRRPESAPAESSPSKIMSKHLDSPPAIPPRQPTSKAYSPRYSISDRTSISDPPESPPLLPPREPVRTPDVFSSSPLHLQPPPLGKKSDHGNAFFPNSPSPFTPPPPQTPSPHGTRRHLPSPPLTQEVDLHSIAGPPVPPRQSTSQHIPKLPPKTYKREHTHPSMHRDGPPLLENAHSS
Assay: biochemical

Cc1c(C#N)cccc1[C@@H](C)Nc1nnc(N2CCN(C(C)C)CC2)c2cc(=O)n(C3CC3)cc12 [Example 215, (R)-3-(1-((6-cyclopropyl-1-(4-isopropylpiperazin-1-yl)-7-oxo-6,7-dihydropyrido[3,4-d]pyridazin-4-yl)amino)ethyl)-2-methylbenzonitrile]
pIC50: 8.07

C[C@@H](Nc1nnc(N2CCC(CO)C2)c2cc(=O)n(C3(C)CC3)cc12)c1cccc(C(F)(F)CO)c1 (stereo partly drawn) [Example 228, 4-(((R)-1-(3-(1,1-difluoro-2-hydroxyethyl)phenyl)ethyl)amino)-1-(3-(hydroxymethyl)pyrrolidin-1-yl)-6-(1-methylcyclopropyl) pyrido[3,4-d]pyridazin-7(6H)-one]
pIC50: 8.36

C[C@@H](Nc1nnc(N2CC3CCCC3C2)c2cc(=O)n(C3(C)CC3)cc12)c1cccc(C(F)F)c1F (stereo partly drawn) [Example 188, 4-(((R)-1-(3-(difluoromethyl)-2-fluorophenyl)ethyl)amino)-1-(hexahydrocyclopenta[c]pyrrol-2(1H)-yl)-6-(1-methylcyclopropyl) pyrido[3,4-d]pyridazin-7(6H)-one]
pIC50: 8.51

C[C@@H](Nc1nnc(N(C)C2CC2)c2cc(=O)n(C3(C)CC3)cc12)c1cccc(C(F)F)c1F [Example 225, (R)-1-(cyclopropyl(methyl)amino)-4-((1-(3-(difluoromethyl)-2-fluorophenyl)ethyl)amino)-6-(1-methylcyclopropyl) pyrido[3,4-d]pyridazin-7(6H)-one]
pIC50: 8.12

Cc1c([C@@H](C)Nc2nnc(N3CCC[C@H]3C)c3cc(=O)n(C4(C)CC4)cc23)cccc1C(F)(F)F [Example 63, 4-(((R)-1-(2-methyl-3-(trifluoromethyl)phenyl)ethyl)amino)-6-(1-methylcyclopropyl)-1-((R)-2-methylpyrrolidin-1-yl)pyrido[3,4-d]pyridazin-7(6H)-one]
pIC50: 8.11

C[C@@H](Nc1nnc(N2CC3CCC(C2)N3C)c2cc(=O)n(C3(C)CC3)cc12)c1cccc(C(F)F)c1F [Example 193]
pIC50: 8.37

Cc1c([C@@H](C)Nc2nnc(N3CC(F)(F)C3)c3cc(=O)n(C4(C)CC4)cc23)cccc1C(F)(F)F [Example 66, (R)-1-(3,3-difluoroazetidin-1-yl)-4-((1-(2-methyl-3-(trifluoromethyl)phenyl)ethyl)amino)-6-(1-methylcyclopropyl) pyrido[3,4-d]pyridazin-7(6H)-one]
pIC50: 7.51

C[C@@H](Nc1nnc(N2CC3CN(C)CC3C2)c2cc(=O)n(C3(C)CC3)cc12)c1cccc(C(F)F)c1F (stereo partly drawn) [Example 206, 4-(((R)-1-(3-(difluoromethyl)-2-fluorophenyl)ethyl)amino)-6-(1-methylcyclopropyl)-1-(5-methylhexahydropyrrolo[3,4-c]pyrrol-2(1H)-yl)pyrido[3,4-d]pyridazin-7(6H)-one]
pIC50: 8.31

C[C@@H](Nc1nnc(NN2CCN(C)CC2)c2cc(=O)n(C3(C)CC3)cc12)c1cccc(C(F)(F)F)c1 [Example 159, (R)-6-(1-methylcyclopropyl)-1-((4-methylpiperazin-1-yl)amino)-4-((1-(3-(trifluoromethyl)phenyl)ethyl)amino)pyr ido[3,4-d]pyridazin-7(6H)-one formate]
pIC50: 8.19

C[C@@H](Nc1nnc(NC2CN3CCC2CC3)c2cc(=O)n(C3(C)CC3)cc12)c1cccc(C(F)F)c1F (stereo partly drawn) [Example 133, 4-(((R)-1-(3-(difluoromethyl)-2-fluorophenyl)ethyl)amino)-6-(1-methylcyclopropyl)-1-(quinuclidin-3-ylamino)pyrido[3,4-d]pyridazin-7(6H)-one]
pIC50: 8.19

CCN1CCN(c2nnc(N[C@H](C)c3cc(N)cc(C)c3F)c3cn(C4(C)CC4)c(=O)cc23)CC1 [Example 160, (R)-4-((1-(5-amino-2-fluoro-3-methylphenyl)ethyl)amino)-1-(4-ethylpiperazin-1-yl)-6-(1-methylcyclopropyl) pyrido[3,4-d]pyridazin-7(6H)-one formate]
pIC50: 8.24

Cc1c(C#N)cccc1[C@@H](C)Nc1nnc(N2CCN(C)CC2)c2cc(=O)n(N3CC4CCCC4C3)cc12 (stereo partly drawn) [Example 150, 3-((1R)-1-((6-(hexahydrocyclopenta[c]pyrrol-2(1H)-yl)-1-(4-methylpiperazin-1-yl)-7-oxo-6,7-dihydropyrido[3,4-d]pyridazin-4-yl)amino)ethyl)-2-methylbenzonitrile]
pIC50: 8.26

Cc1c(C(F)F)cccc1[C@@H](C)Nc1nnc(N2CCN(C)CC2)c2cc(=O)n(C3CC3)cc12 [Example 210, (R)-6-cyclopropyl-4-((1-(3-(difluoromethyl)-2-methylphenyl)ethyl)amino)-1-(4-methylpiperazin-1-yl)pyrido[3,4-d]pyridazin-7(6H)-one]
pIC50: 8.57

C[C@@H](Nc1nnc(-n2ccnc2)c2cc(=O)n(C3(C)CC3)cc12)c1cccc(C(F)F)c1F [Example 34, (R)-4-((1-(3-(difluoromethyl)-2-fluorophenyl)ethyl)amino)-1-(1H-imidazol-1-yl)-6-(1-methylcyclopropyl) pyrido[3,4-d]pyridazin-7(6H)-one]
pIC50: 7.84

CC(C)n1cc2c(N[C@H](C)c3cccc(C(F)F)c3F)nnc(N3CCN(C)CC3)c2cc1=O [Example 114, (R)-4-((1-(3-(difluoromethyl)-2-fluorophenyl)ethyl)amino)-6-isopropyl-1-(4-methylpiperazin-1-yl)pyrido[3,4-d]pyridazin-7(6H)-one formate]
pIC50: 8.22

Cc1c(C#N)cccc1[C@@H](C)Nc1nnc(N2CCN(C3CCC3)CC2)c2cc(=O)n(C3CC3)cc12 [Example 100, (R)-3-(1-((1-(4-cyclobutylpiperazin-1-yl)-6-cyclopropyl-7-oxo-6,7-dihydropyrido[3,4-d]pyridazin-4-yl)amino)ethyl)-2-methylbenzonitrile]
pIC50: 7.96

C[C@@H](Nc1nnc(N2CCC(F)(F)C2)c2cc(=O)n(C3(C)CC3)cc12)c1cccc(C(F)F)c1F [Example 26, (R)-4-((1-(3-(difluoromethyl)-2-fluorophenyl)ethyl)amino)-1-(3,3-difluoropyrrolidin-1-yl)-6-(1-methylcyclopropyl) pyrido[3,4-d]pyridazin-7(6H)-one]
pIC50: 7.73

Cc1cc(N)cc([C@@H](C)Nc2nnc(N3CCN(C4CCCC4)CC3)c3cc(=O)n(C4CC4)cc23)c1F [Example 148, (R)-4-((1-(5-amino-2-fluoro-3-methylphenyl)ethyl)amino)-1-(4-cyclopentylpiperazin-1-yl)-6-cyclopropylpyrido[3 ,4-d]pyridazin-7(6H)-one]
pIC50: 8.19

Cc1cc(N)cc([C@@H](C)Nc2nnc(N3CCN(C(C)C)CC3)c3cc(=O)n(C4(C)CC4)cc23)c1F [Example 161, (R)-4-((1-(5-amino-2-fluoro-3-methylphenyl)ethyl)amino)-1-(4-isopropylpiperazin-1-yl)-6-(1-methylcyclopropyl) pyrido[3,4-d]pyridazin-7(6H)-one]
pIC50: 8.28

C[C@@H](Nc1nnc(N(C)CCN(C)C)c2cc(=O)n(C3(C)CC3)cc12)c1cccc(C(F)F)c1F [Example 124, (R)-4-((1-(3-(difluoromethyl)-2-fluorophenyl)ethyl)amino)-1-((2-(dimethylamino)ethyl)(methyl)amino)-6-(1-methylcyclopropyl) pyrido[3,4-d]pyridazin-7(6H)-one formate]
pIC50: 8.24
